Reference: patent US6613797B2, “Xanthone analogs for treating infectious diseases and complexation of heme and porphyrins” (Interlab, Inc., priority 1999, dated 2003)
In brackets after ≈: the same amount, converted by molar mass. Read-outs that look alike come from different tables or passages of the source.

Experiments:
Leishmania donovani [1] = experiment: anti-Leishmania activity, promastigote radiolabeled thymidine uptake assay; format: cell-based
Method: Leishmania donovani was cultivated in Schneider's medium (Gibco, Grand Island, N.Y.) according to the methods described by Grogl et al. (1992). The in vitro susceptibility of L. donovani to Formula X1 compounds was determined using the radiolabeled thymidine uptake assay essentially as described by Grogl et al. (1992). Briefly, promastigotes were cultivated at 25° C. in Schneider's medium supplemented with 20% inactivated fetal calf serum and 100 μg/mL of gentamicin. Cells were maintained in log phase by seeding at 1×10^6/mL with subculturing when cultured densities approached 4×10^7/mL before reaching their maximal density. For the assay, early log phase promastigotes were counted on a hemacytometer and resuspended at a concentration of 1-2×10^6 cell/mL in assay media (Schneider's medium plus 10% fetal bovine serum). Ten-fold serial dilutions of each test compound were prepared as described above and added to 180 μL of the parasite suspension. After incubation for 24 hours at 25° C., methyl-^3H-thymidine was added to each sample for a final concentration of 1-2 μCi per well. Each sample was then incubated for an additional 18 hours prior to harvesting. After this incubation time, each sample was aspirated onto a filter mat, washed thoroughly with deionized water, dried and then counted in a scintillation counter with scintillation cocktail. […]

[2] = tested on: intracellular amastigotes of Leishmania mexicana M379; experiment: intracellular amastigote assay in infected murine macrophages; format: cell-based; settings: Leishmania mexicana, Macrophage, read-out: IC50, anti-leishmanial activity
Method: Bone-marrow-derived macrophages (BALB/c) were cultured with L-cell-conditioned medium for 5-7 days at 35° C. After this period of incubation, mature macrophages were transferred to Labtek 4-chamber slides containing DMEM (Dulbecco's Modified Eagle's Medium) and 10% fetal calf serum. 50,000 cells were seeded in each chamber and allowed to attach overnight at 37° C. in a humidified incubator flushed with 5% CO2. On the next day the macrophages were infected at an MOI (Multiplicity of Infection) of 10:1 with stationary promastigotes of L. mexicana. After twenty-four hours, the medium was removed and fresh medium was added containing various drug concentrations (0-5 μM). Following incubation for an additional forty-eight hours, one set of slides were fixed in methanol, dried, and stained with Giemsa stain. Fresh medium and drug were added to a parallel set of chamber slides and incubated for another 48 hours before staining. […] Microscopic inspection permitted determination of % of infected macrophages and the number of amastigotes per 100 macrophages. The IC50 value is that concentration of drug that reduces the amastigote number by 50% relative to drug-free controls. Results also were obtained in parallel fashion with macrophages.
Intracellular amastigote studies. […] Because the amastigote stage is the only relevant clinical form of the parasites, we examined the activity of the nitrogenated xanthones against the heme-auxotrophic, intracellular amastigote form of L. mexicana. Stationary promastigotes of L. mexicana M379 rapidly invaded murine peritoneal macrophages obtained from BALB/c mice and incubated at 35° C. producing heavily burdened cells with 10 to 50 amastigotes per macrophage within 24 hours. An experiment was performed to investigate the ability of selected xanthones to reduce the number of intracellular amastigotes using this model. The IC50 value is that concentration of drug required to reduce the intracellular parasite burden by 50% relative to a drug-free control chamber. We tested the xanthone series against amastigote-infected murine peritoneal macrophages. Macrophages were seeded into Labtek chamber slides (25,000 per well/8 chamber slide) and allowed to incubate overnight in Dulbecco's Modified Eagle Medium (DMEM) supplemental with 10% fetal calf serum. On the next day the cells were infected with L. mexicana promastigotes at an MOI of 5:1 and then incubated for 24 hours at 35° C. After incubation, the monolayers were washed with buffer and medium containing varying concentrations of each xanthone (0 to 10 μM) was added to each chamber. After 48 hours of incubation (i.e., Day 3 of the experiment) one set of slides was removed, fixed with methanol, and stained with Giemsa. For another set of slides, we replenished the culture medium, added fresh drug to each well as appropriate, and then incubated the chambers for another 48 hours before staining with Giemsa. IC50 values were then averaged for 3 separate experiments and the results are presented in Table 4 and graphically in FIG. 7. […] The IC50 values recorded for C5 and C6 exposure for 96 hours of treatment were 6 nM and 2 nM.

[3] = tested on: Plasmodium falciparum D6 strain; experiment: in vitro anti-malarial activity, [3H]-ethanolamine incorporation method; format: cell-based; settings: Plasmodium falciparum, D6; Table 1, reproduced from U.S. Pat. No. 5,977,077; read-out: IC50, μM vs. Plasmodium
Method: Cultures were maintained at 37° C. in a gas mixture of 5% oxygen, 5% CO2, and 90% nitrogen.
[^3H]-ethanolamine was obtained from American Radiolabeled Chemicals, Inc., St. Louis, Mo. Experiments were conducted in 96 well plates in a total volume of 200 μl at a final red blood cell concentration of 2% (v/v). An initial parasitemia of 0.2 to 0.5% was attained by addition of normal uninfected red cells. Radiolabeled ethanolamine was added after 48 hours of incubation and the experiment was terminated after 72 hours by collecting the cells onto glass fiber filters with an automated multiwell harvester.
Stock solutions of the various Formula X1 compounds were dissolved in DMSO at a concentration of 1 mM and diluted in complete medium (including 10% human serum) to provide 10X stock concentrations in the range of 1 to 10,000 nM.

[4] = tested on: malaria Plasmodium parasites; settings: rufigallol combined with exifone; cited from earlier work
Leishmania donovani [5] = settings: Table 2; literature reported value; cited from earlier work

COc1c(O)cc2oc3cc(O)c(CC=C(C)C)c(O)c3c(=O)c2c1CC=C(C)C [Mangostin, reference compound]
IC50 (Leishmania donovani [1]; read-out: IC50 mg/ml for Leishmania): 0.00041 mg/mL (≈ 0.999 µM)
IC50 [2]: 0.41 µg/mL
IC50 ([2]; intracellular amastigote method): 1 µM
IC50 [3]: 5 µM

O=c1c2cc(O)c(O)cc2oc2cc(O)c([C@@H]3O[C@H](CO)[C@@H](O)[C@H](O)[C@H]3O)c(O)c12 [Mangiferin, reference compound]
IC50 (Leishmania donovani [1]; Table 2, read-out: IC50 mg/ml for Leishmania): > 0.05 mg/mL
IC50 [3]: 50 µM

O=C1c2cc(O)c(O)c(O)c2C(=O)c2cc(O)c(O)c(O)c21 [rufigallol, 1,2,3,5,6,7,-hexahydroxy-9,10-anthraquinone]
increase in potency against malaria Plasmodium parasites [4]: ~350 fold

Stibogluconate [Stibogluconate [Sodium Antimony (V) Gluconate]]
IC50 mg/ml for Leishmania (Leishmania donovani [5]): 0.1 to 1.0 literature reported value mg/ml
